Patent publication US10973821B2, “Pharmaceutical formulation” (priority 2016, dated 2021)

Key:
[1] = in vivo PK studies in rats (single dose IV and p.o.); settings: rat, 10 mg/kg
Description: Various formulations were investigated in in vivo PK studies in rats to determine the optimal oral formulation for dosing to animals and humans.
The compound of Formula I was administered to rats by IV at a dosage of 10 mg/kg. The vehicle comprised 15% hydroxypropyl beta cyclodextrin (Kelptose HPB parenteral grade), 5% DMSO and water for injection. The formulation was filtered using a ≤0.22 μm polyethersulfone (PES) membrane filter prior to use. The dose volume administered was 5 mL/kg. 0.2 mL blood samples from the sublingal vein under isoflurane anaesthesia were obtained 5 minutes after IV administration and stored in EDTA. Plasma was separated by centrifugation (1500×g, 10 mins, ca. 4° C.) and was frozen at −70° C. prior to analysis. Analysis to calculate plasma concentration of the compound of Formula I was conducted by LC-MS/MS. […] The AUCIV value was subsequently used to calculate the bioavailability of example oral formulations as described above.
A crystalline sample of the compound of Formula I was formulated in PEG300. The formulation was dosed p.o. (gavage) to rats at 10 mg/kg (dose volume=5 mL/kg). 0.2 mL blood samples from the sublingal vein under isoflurane anaesthesia were obtained 15 minutes after oral administration and stored in EDTA. Samples were then taken 0.5, 1, 2, 4, 8, 12 and 24 hours post-dose.

[2] = in vivo PK studies in cynomolgus monkeys (single dose IV and p.o.); settings: both sexes, cynomolgus monkey, 10 mg/kg
Description: Various formulations were investigated in in vivo PK studies in cynomolgus monkeys to determine the optimal oral formulation for dosing to animals and humans.
The compound of Formula I was administered to male and female cynomolgus monkeys by IV at a dosage of 10 mg/kg. The IV formulation was as described in Example 3. […] The AUCIV value was subsequently used to calculate the bioavailability of example oral formulations as described above.
Studies were conducted using Formulation 2 as described above. The compound of Formula I was administered p.o. to male and female cynomolgus monkeys at a dose level of 10 mg/kg. (dose volume 5 mL/kg). 2 mL blood samples were obtained 5 minutes via femoral puncture (vein/artery) into commercially available K2EDTA tubes using 23G needles coupled to a suitable syringe. Samples were taken 0.25, 0.5, 1, 2, 4, 8, 12 and 24 hours after administration of the formulation. Blood samples were kept on ice until centrifugation at 1600×g (10 mins, ca. 5° C.) to separate plasma. Analysis to calculate plasma concentration of the compound of Formula I was conducted by LC-MS/MS.
Studies were conducted using Formulation 5 as described in Example 3. […]

A. niger = settings: cited from earlier work
A. fumigatus [3] = settings: cited from earlier work
A. terreus = settings: cited from earlier work
A. flavus = settings: cited from earlier work
A. terreus 49 = settings: cited from earlier work
A. fumigatus 210 = settings: cited from earlier work
S. apiospermum 13486 = settings: cited from earlier work
S. apiospermum 15848 = settings: cited from earlier work
S. apiospermum 451 = settings: cited from earlier work
S. apiospermum 4883 = settings: cited from earlier work
S. apiospermum 7935 = settings: cited from earlier work
S. apiospermum 8353 = settings: cited from earlier work
S. prolificans 18389 = settings: cited from earlier work
S. prolificans 206 = settings: cited from earlier work
S. prolificans 6322 = settings: cited from earlier work
S. prolifican 201 = settings: cited from earlier work
S. prolifican 13486 = settings: cited from earlier work
S. prolifican 7935 = settings: cited from earlier work
S. prolifican 15848 = settings: cited from earlier work
S. prolifican 8353 = settings: cited from earlier work
S. prolifican 451 = settings: cited from earlier work
S. prolifican 4883 = settings: cited from earlier work
S. prolifican 15849 = settings: cited from earlier work
S. prolifican 1121 = settings: cited from earlier work
S. apiospermum 1124 = settings: cited from earlier work
S. dehoogii = settings: cited from earlier work
S. boydii = settings: cited from earlier work
S. aurantiacum = settings: cited from earlier work
invasive aspergillosis = settings: mouse; orally by gavage; not the formulations of the present invention; cited from earlier work
A. fumigatus [4] = settings: A. fumigatus infected mice; orally by gavage; cited from earlier work
[5] = tested on: Lomentospora prolificans FMR 3569; settings: mice infected with Lomentospora prolificans FMR 3569; relative to voriconazole; orally by gavage; cited from earlier work

## Cc1cc(-c2ccccc2)c(C(=O)C(=O)Nc2ccc(N3CCN(c4ncc(F)cn4)CC3)cc2)n1C [compound of Formula I, 2-(1,5-dimethyl-3-phenyl-1H-pyrrol-2-yl)-N-(4-(4-(5-fluoropyrimidin-2-yl)piperazin-1-yl)phenyl)-2-oxoacetamide]
[1]
  AUC: 13500 ng·h/mL
[2]
  AUC: 18000 ng·h/mL
A. niger
  MIC band (RPMI medium): C (0.01 < MIC ≤ 0.02)
A. fumigatus [3]
  MIC band (RPMI medium): C (0.01 < MIC ≤ 0.02)
A. terreus
  MIC band (RPMI medium): A (MIC ≤ 0.005)
A. flavus
  MIC band (RPMI medium): B (0.005 < MIC ≤ 0.01)
A. terreus 49
  MIC band (RPMI medium): A (MIC ≤ 0.005)
A. fumigatus 210
  MIC band (RPMI medium): C (0.01 < MIC ≤ 0.02)
S. apiospermum 13486
  MIC band (RPMI medium): D (0.02 < MIC ≤ 0.04)
S. apiospermum 15848
  MIC band (RPMI medium): D (0.02 < MIC ≤ 0.04)
S. apiospermum 451
  MIC band (RPMI medium): B (0.005 < MIC ≤ 0.01)
S. apiospermum 4883
  MIC band (RPMI medium): C (0.01 < MIC ≤ 0.02)
S. apiospermum 7935
  MIC band (RPMI medium): C (0.01 < MIC ≤ 0.02)
S. apiospermum 8353
  MIC band (RPMI medium): B (0.005 < MIC ≤ 0.01)
S. prolificans 18389
  MIC band (RPMI medium): C (0.01 < MIC ≤ 0.02)
S. prolificans 206
  MIC band (RPMI medium): D (0.02 < MIC ≤ 0.04)
S. prolificans 6322
  MIC band (RPMI medium): D (0.02 < MIC ≤ 0.04)
S. prolifican 201
  MIC band (RPMI medium): D (0.02 < MIC ≤ 0.04)
S. prolifican 13486
  MIC band (RPMI medium): D (0.02 < MIC ≤ 0.04)
S. prolifican 7935
  MIC band (RPMI medium): C (0.01 < MIC ≤ 0.02)
S. prolifican 15848
  MIC band (RPMI medium): D (0.02 < MIC ≤ 0.04)
S. prolifican 8353
  MIC band (RPMI medium): B (0.005 < MIC ≤ 0.01)
S. prolifican 451
  MIC band (RPMI medium): B (0.005 < MIC ≤ 0.01)
S. prolifican 4883
  MIC band (RPMI medium): C (0.01 < MIC ≤ 0.02)
S. prolifican 15849
  MIC band (RPMI medium): E (0.04 < MIC ≤ 0.06)
S. prolifican 1121
  MIC band (RPMI medium): A (MIC ≤ 0.005)
S. apiospermum 1124
  MIC band (RPMI medium): A (MIC ≤ 0.005)
S. dehoogii
  antifungal activity: good antifungal activity
S. boydii
  antifungal activity: good antifungal activity
S. aurantiacum
  antifungal activity: good antifungal activity
Invasive aspergillosis
  efficacy in murine models of invasive aspergillosis: excellent efficacy
A. fumigatus [4]
  galactomannan indices: reduce galactomannan indices
[5]
  survival: increase survival
